Key:
[1] = Solubility character of the agents; type: physicochemical
[2] = test system: Wistar rats; experiment: Reproductive function study, agents administered to male rats and female rats separately (Example 2); type: in vivo, rat; conditions: for Amount of embryonate female rats: of 20 added females; for Amount of babies delivered by 1 female / Amount of dead fetuses / Amount of gestation female rats / Amount of implantation sites / Amount of resorptions / Amount of viable fetuses / Amount of yellow bodies / Carniocaudal size of fetus / Fertility index / Fetus body weight / Gestation index / Post-implantation loss / Postnatal loss after 3 weeks / Pre-implantation loss / Weight of newborn baby rats / Dynamics of infant body weight, 1st week / Dynamics of infant body weight, 2nd week / Dynamics of infant body weight, 3rd week / Dynamics of infant body weight, 4th week: 0.35 mg/kg
Protocol: 180 male and female Wistar rats were studied in the experiments (initial body weight—180-200 g). The prototype agent and the agent of present invention in the clathrate complex form were administered intragastrically in amount of 0.35 mg/kg. Female group of 120 animals was broken into two subgroups: control group (80 animals) and study group (40 animals). The prototype agent and the agent of present invention in the clathrate complex form were intragastrically administered to female rats of study group once a day during 2 weeks (3-4 estrous cycles). Male group of 60 animals was broken into two subgroups: control group (40 animals) and study group (20 animals). The prototype agent and the agent of present invention in the clathrate complex form were intragastrically administered to male rats of study group daily during 10 weeks (2-3 cycles of spermatozoa maturation). Corresponding amounts of placebo comprised of vegetable oil or β-cyclodextrin were administered to animals of the control group with the same intervals. The placebo was chosen based on the fact that the prototype agent is an oil-soluble compound and the agent of present invention in the clathrate complex form is a water soluble compound. The drugs were administered once daily (at 10 a.m.).
After administering the medication 6 groups of animals were formed: • the first (vegetable oil)—20 control female rats were housed together with 10 control male rats; • the second (β-cyclodextrin)—20 control female rats were housed together with 10 control male rats; • the third (the prototype, 0.35 mg/kg)—20 study female rats were housed together with 10 control male rats; • the fourth (the prototype, 0.35 mg/kg)—20 control female rats were housed together with 10 study male rats; • the fifth (the agent of present invention in the clathrate complex form 0.35 mg/kg)—20 study female rats were housed together with 10 control male rats; • the sixth (the agent of present invention in the clathrate complex form 0.35 mg/kg)—20 control female rats were housed together with 10 study male rats.
A pre- and post-implantation fetal death indexes, fertility index and gestation index were calculated according to equations cited in Example 1.

[3] = test system: Wistar rats; experiment: Reproductive function study, agents administered to male rats (Example 1); type: in vivo, rat; conditions: for Amount of gestation female rats / Fertility index / Gestation index / Amount of embryonate female rats: administered to male rats; for Amount of embryonate female rats: of 20 females housed with males; for Amount of babies delivered by 1 female / Post-implantation loss / Postnatal loss after 3 weeks / Pre-implantation loss / Weight of newborn baby rats / Dynamics of babies' body weight, 1st week / Dynamics of babies' body weight, 2nd week / Dynamics of babies' body weight, 3rd week / Dynamics of babies' body weight, 4th week / Craniocaudal size of fetus / Fetus weight / Amount of dead fetuses / Amount of implantation sites / Amount of resorptions / Amount of viable fetuses / Amount of yellow bodies: 10 weeks; for Craniocaudal size of fetus / Fetus weight: 20th day of gestation; for Amount of dead fetuses / Amount of implantation sites / Amount of resorptions / Amount of viable fetuses / Amount of yellow bodies: females sacrificed on 20th day of gestation
Protocol: 180 male and female Wistar rats were tested in the 110 experiments (initial body weight—180-200 g).
Group of 60 male rats was grouped into 6 subgroups each including 10 animals. Each group was treated as follows: group 1—vegetable oil, group 2—β-cyclodextrin, group 3—the agent of present invention, 0.35 mg/kg (the prototype agent), group 4—medication, 0.70 mg/kg (the prototype agent), group 5—the agent of present invention in a clathrate complex, 0.35 mg/kg, group 6—the agent of present invention in a clathrate complex, 0.70 mg/kg.
Male rats of the study subgroups were intragastrically given the above mentioned doses of the prototype agent and the agent of present invention in the clathrate complex form daily during 10 weeks (2-3 cycles of spermatozoa maturation). At the same time, animals of control groups were treated with corresponding amounts of placebo consisting of the vegetable oil or β-cyclodextrin. The placebo was chosen based on the fact that the prototype agent is an oil-soluble compound and the agent of present invention in the clathrate complex form is a water soluble compound. The drugs were administered once daily (at 10 a.m.).
After completion of dosing 6 groups of animals were formed: • the first (vegetable oil)—20 control female rats were housed together with 10 control male rats; the second (β-cyclodextrin)—20 control female rats were housed together with 10 control male rats; the third (the prototype agent, 0.35 mg/kg)—20 study female rats housed together with 10 control male rats; • the fourth (the prototype, 0.70 mg/kg)—20 control female rats were housed together with 10 study male rats; • the fifth (the agent of present invention in the clathrate complex form 0.35 mg/kg)—20 study female rats were housed together with 10 control male rats; • the sixth (the agent of present invention in the clathrate complex form 0.70 mg/kg)—20 control female rats were housed together with 10 study male rats.
During two estrous cycles, vaginal smear preparations were analyzed. Proestrus, estrus and metaestrum phases were detected. Presence of spermatozoa in vaginal smear preparations was registered as the first day of gestation. After 10 days, two subgroups of gestation female rats were formed from female rats in each of […] groups. Female rats of the first subgroups were sacrificed on 20th day of gestation. Amount of fetuses, resorption, implantation sites in the uterine cavity and yellow bodies of ovary were counted. Based on the obtained data, pre-implantation and post-implantation fetal death indexes were calculated according to the following equation: […]
where N1—amount of yellow bodies, N2—amount of implantation sites
where N1—amount of implantation sites N2—amount of viable fetuses.
Further, fertility index (ratio between the amount of female rats housed together with male rats to the amount of female rats having spermatozoa in vaginal smear preparations) and gestation index (ratio between the amount of female rats having spermatozoa in vaginal smear preparations to the amount of animals with full-term pregnancy):
where N1—amount of embryonate female rats N2—amount female rats housed together with male rats
where N1—amount of gestation female rats N2—amount of embryonate female rats Pathological changes (subcutaneous hematomas and edemas, developmental defects of skeletal system and eye globes) were registered.
The second groups of gestation female rats were allowed to parturiate under monitoring. Animals were weighed weekly and weight gain was registered. Parturition date, amount of babies in the brood and weight of babies were recorded. On 21st day after parturition, the survival rate and total and median weight of babies were measured.

[4] = administered to female rats, 2 weeks
[5] = administered to male rats, 10 weeks
[6] = 0.35 mg/kg intragastrically daily during 10 weeks
[7] = 0.70 mg/kg intragastrically daily during 10 weeks

## c1ccc(C2C3=C(CCCC3)[Se]C3=C2CCCC3)cc1 [Prototype agent, 9-phenyl-sym-octahydroselenoxanthene]
[1]
  Solubility (oil-soluble / water soluble): oil-soluble
[2]; administered to female rats, 0.35 mg/kg intragastrically once a day during 2 weeks
  Amount of embryonate female rats: 16
[2]; [4]
  Amount of babies delivered by 1 female: 8.6 ± 0.9
  Amount of dead fetuses: 0
  Amount of gestation female rats: 14
  Amount of implantation sites: 9.9 ± 0.6
  Amount of resorptions: 0.4 ± 0.2
  Amount of viable fetuses: 9.2 ± 1.1
  Amount of yellow bodies: 10.7 ± 0.7
  Carniocaudal size of fetus: 35 ± 2 mm
  Fertility index: 80%
  Fetus body weight: 3.4 ± 0.2 g
  Gestation index: 88%
  Post-implantation loss: 7.1%
  Postnatal loss after 3 weeks: 2.5%
  Pre-implantation loss: 7.5%
  Weight of newborn baby rats: 6.2 ± 0.9 g
  Dynamics of infant body weight, 1st week: 18.8 ± 1.2 g
  Dynamics of infant body weight, 2nd week: 26.3 ± 1.5 g
  Dynamics of infant body weight, 3rd week: 47.4 ± 2.0 g
  Dynamics of infant body weight, 4th week: 61.5 ± 2.8 g
[2]; administered to male rats, 0.35 mg/kg intragastrically daily during 10 weeks
  Amount of embryonate female rats: 17
[2]; [5]
  Amount of babies delivered by 1 female: 8.7 ± 0.8
  Amount of dead fetuses: 0
  Amount of gestation female rats: 15
  Amount of implantation sites: 10.1 ± 1.1
  Amount of resorptions: 0.4 ± 0.2
  Amount of viable fetuses: 9.4 ± 1.0
  Amount of yellow bodies: 10.8 ± 0.8
  Carniocaudal size of fetus: 35 ± 1 mm
  Fertility index: 85%
  Fetus body weight: 3.5 ± 0.2 g
  Gestation index: 88%
  Post-implantation loss: 6.9%
  Postnatal loss after 3 weeks: 2.6%
  Pre-implantation loss: 6.5%
  Weight of newborn baby rats: 6.4 ± 1.2 g
  Dynamics of infant body weight, 1st week: 20.1 ± 0.9 g
  Dynamics of infant body weight, 2nd week: 27.2 ± 1.5 g
  Dynamics of infant body weight, 3rd week: 45.9 ± 1.9 g
  Dynamics of infant body weight, 4th week: 61.9 ± 2.6 g
[3]; [6]
  Amount of gestation female rats: 13
  Fertility index: 80%
  Gestation index: 81%
  Amount of embryonate female rats: 16
[3]; [7]
  Amount of gestation female rats: 14
  Fertility index: 85%
  Gestation index: 82%
  Amount of embryonate female rats: 17
[3]; male rats 0.35 mg/kg
  Amount of babies delivered by 1 female: 9.2 ± 1.1
  Post-implantation loss: 5.3%
  Postnatal loss after 3 weeks: 2.8%
  Pre-implantation loss: 5.1%
  Weight of newborn baby rats: 5.7 ± 0.9 g
  Dynamics of babies' body weight, 1st week: 19.2 ± 1.1 g
  Dynamics of babies' body weight, 2nd week: 25.2 ± 1.6 g
  Dynamics of babies' body weight, 3rd week: 45.7 ± 1.2 g
  Dynamics of babies' body weight, 4th week: 60.4 ± 1.9 g
  Craniocaudal size of fetus: 33 ± 2 mm
  Fetus weight: 3.3 ± 0.2 g
  Amount of dead fetuses: 0
  Amount of implantation sites: 13.1 ± 1.0
  Amount of resorptions: 0.6 ± 0.2
  Amount of viable fetuses: 12.4 ± 0.8
  Amount of yellow bodies: 13.8 ± 1.2
[3]; male rats 0.70 mg/kg
  Amount of babies delivered by 1 female: 9.0 ± 1.2
  Post-implantation loss: 4.8%
  Postnatal loss after 3 weeks: 2.8%
  Pre-implantation loss: 5.3%
  Weight of newborn baby rats: 5.8 ± 1.0 g
  Dynamics of babies' body weight, 1st week: 19.1 ± 0.8 g
  Dynamics of babies' body weight, 2nd week: 25.3 ± 1.2 g
  Dynamics of babies' body weight, 3rd week: 44.7 ± 1.5 g
  Dynamics of babies' body weight, 4th week: 59.8 ± 2.4 g
  Craniocaudal size of fetus: 33 ± 1 mm
  Fetus weight: 3.3 ± 0.1 g
  Amount of dead fetuses: 0
  Amount of implantation sites: 12.5 ± 1.0
  Amount of resorptions: 0.5 ± 0.2
  Amount of viable fetuses: 11.9 ± 0.7
  Amount of yellow bodies: 13.2 ± 0.9
